Experimental findings from patent US20240253988A1, “PROCESS FOR THE PRODUCTION OF HYDROGEN PEROXIDE” (ARKEMA FRANCE, priority 2021, published 2024) are described below.

The nature of series [1]: Water solubility, coulometric Karl Fischer titration ASTM-D6304. It counts as physicochemical. The method, then:
According to some preferred embodiments, the organic solvent is not soluble (or essentially not soluble) in water, and preferably has a water solubility equal to or lower than 200 mg/kg, preferably equal to or lower than 190 mg/kg, and more preferably equal to or lower than […]. Water solubility can be determined by coulometric Karl Fischer titration according to ASTM-D6304.
Water solubility can be determined by coulometric Karl Fischer titration according to ASTM-D6304.

A short description of series [2]: Flash point, closed-cup apparatus ASTM-D3278. The format is physicochemical. The method, then:
According to preferred embodiments, the organic solvent according to the present invention may have a flash point higher than 60° C., preferably higher than 62.5° C. and more preferably higher than 65° C. Flash point can be determined by closed-cup apparatus according to ASTM-D3278.
Flash point can be determined by closed-cup apparatus according to ASTM-D3278.

Series [3] in a line: Specific gravity, hydrometer ASTM-D891. The format is physicochemical. The source says: The organic solvent according to the present invention may have a specific gravity equal to or lower than 0.95, and preferably equal to or lower than 0.94. According to preferred embodiments, the organic solvent according to the present invention may have a specific gravity from 0.89 to 0.95, and preferably from 0.90 to 0.94. Specific gravity can be determined by means of a hydrometer according to ASTM-D891.
Specific gravity can be determined by means of a hydrometer according to ASTMD891.

The nature of series [4]: Vapor pressure, ebulliometry ASTM-E1719. It counts as physicochemical. As for the experimental part:
Furthermore, the solvent of formula (I) may have a vapor pressure equal to or lower than 450 Pa, preferably equal to or lower than 400 Pa, and more preferably equal to or lower 350 Pa at 20° C. For example, the solvent of formula (I) may have a vapor pressure equal to or lower than 450 Pa, or equal to or lower than 400 Pa, or equal to or lower than 350 Pa, or equal to or lower than 300 Pa, or equal to or lower than 250 Pa, or equal to or lower than 200 Pa, or equal to or lower than 250 Pa, or equal to or lower than 200 Pa, or equal to or lower than 150 Pa, or equal to or lower than 100 Pa, at 20° C. Vapor pressure can be determined by ebulliometry according to ASTM-E1719.
Vapor pressure can be determined by ebulliometry according to ASTM-E1719.

The format of series [5] is physicochemical. As for the experimental part: The solubility of 2-ethylanthraquinone (2-EAQ) was measured in four different solvents. Solvents A to C are according to the invention, while solvent D is a comparative solvent: • Solvent A: 1-ethyl-4-methoxybenzene • Solvent B: 2,6-dimethylanisole • Solvent C: phenylpropylether • Solvent D: 1,3,5-trimethylbenzene
Solubilities were determined by equilibrating the 2-ethylanthraquinone with the solvent in a glass flask shaken in a carefully temperature controlled atmosphere. Analysis of the samples was done by liquid chromatography. Reference mixtures were prepared for calibration.
The solubility is measured at a temperature of 20° C.

Molecule `CCCOc1ccccc1` [Solvent C, phenylpropylether] came in with a Water solubility in series [1] of 141 mg/kg. Further, in series [2], the Flashpoint was 64-65 °C. The molecule also gave a Specific gravity in series [3] of 0.946. Besides, the “Vapor Pressure” value in series [4] is listed as 60 Pa. In series [5], the 2-EAQ solubility is on record as 229 g/kg of solvent.
The molecule `COc1c(C)cccc1C` [Solvent B, 2,6-dimethylanisole] came in with a Water solubility in series [1] of 114 mg/kg. In addition, the Flashpoint in series [2] is 61-67 °C. In series [3], this molecule had a Specific gravity of 0.943. Moreover, the “Vapor Pressure” value in series [4] is 124 Pa. Also, the 2-EAQ solubility in series [5] is on record as 226 g/kg of solvent.
Turning to `Cc1cc(C)cc(C)c1` [Solvent D, 1,3,5-trimethylbenzene, reference compound], in series [5], the 2-EAQ solubility was 210 g/kg of solvent.
On to `CCc1ccc(OC)cc1` [Solvent A, 1-ethyl-4-methoxybenzene], for which, in series [1], the Water solubility is reported as 90 mg/kg. Besides, in series [2], the Flashpoint is 68-72 °C. In series [3], the Specific gravity worked out at 0.944. Moreover, the “Vapor Pressure” value in series [4] is listed as 67 Pa. The 2-EAQ solubility in series [5] was 229 g/kg of solvent.
On to `COc1ccccc1` [Anisole (*), Anisole, reference compound], for which the Water solubility in series [1] is given as 1728 mg/kg. Further, the Flashpoint in series [2] is 49-52 °C. Moreover, the Specific gravity in series [3] is given as 0.995. Further, the “Vapor Pressure” value in series [4] stood at 490 Pa.
